Where no end group is shown, it is not given here.
How the values were obtained:
PAR4 [1] = biological target: T1, PAR4 (Homo sapiens (Human), UniProt Q96RI0); test: FLIPR assay in PAR4-expressing HEK293 cells (calcium mobilization); assay type: cell-based; settings: PAR4 antagonist activity, FLIPR assay as described in Example A
PAR4 [2] = biological target: T1, PAR4; test: Gamma thrombin induced platelet aggregation assay (PRP assay); assay type: cell-based; settings: γ-thrombin induced platelet aggregation in PRP
human washed platelets = test: Alpha-thrombin induced platelet aggregation assay in human washed platelets; assay type: cell-based; settings: 0.1 h, read-out: IC50 for the inhibition of platelet aggregation
Procedure: Example D is an alpha-thrombin-induced platelet aggregation assay. Alpha-thrombin activates both PAR1 and PAR4. The ability of a selective PAR4 antagonist of the present invention, Example 13, to inhibit platelet aggregation was measured using a standard optical aggregometer.
Human blood was collected in ACD (85 mM tri-sodium citrate, 78 mM citric acid, 110 mM D-glucose, pH 4.4) at a ratio of 1.4 ml per 10 ml blood. PRP was isolated by centrifugation at 170 g for 14 minutes and platelets were further pelleted by centrifugation at 1300 g for 6 minutes. Platelets were washed once with 10 ml ACD containing 1 mg/ml bovine serum albumin. Platelets were resuspended at ˜2.5×10^8/ml in Tyrode's Buffer (137 mM NaCl, 2 mM KCl, 1.0 mM MgCl2, 1 mM CaCl2, 5 mM glucose, 20 mM HEPES pH 7.4).
The ability of a PAR4 antagonist (Example 13) compound to inhibit platelet aggregation induced by alpha-thrombin was tested using human washed platelets. Example 13 was pre-incubated with washed platelets for 20 min. Aggregation was initiated by addition of 1.5 nM alpha-thrombin (Haematologic Technologies, Essex Junction, Vt.) to 300 μl of washed platelets at stirring speed of 1000 rpm. […] IC50 was calculated using vehicle control as 0% inhibition.

human PRP = test: Tissue factor-induced platelet aggregation assay; assay type: cell-based; settings: FIGS. 1 and 2
Text: Example E is a tissue factor-induced platelet aggregation assay. The conditions in this assay mimic the physiological events during thrombus formation. In this assay, platelet aggregation in human PRP was initiated by the addition of tissue factor and CaCl2. Tissue factor, the initiator of the extrinsic coagulation cascade, is highly elevated in human atherosclerotic plaque. Exposure of blood to tissue factor at the atherosclerotic site triggers a robust generation of thrombin and induces the formation of obstructive thrombi.
The ability of PAR1 or PAR4 antagonists to inhibit platelet aggregation induced by endogenous thrombin can be tested in a tissue factor driven aggregation assay. Aggregation is initiated by addition of CaCl2 and recombinant human tissue factor, which results in the generation of thrombin through activation of the coagulation pathway in the plasma. Anticoagulant agents such as corn trypsin inhibitor (Haematologic Technologies, Essex Junction, Vt.) at 50 μg/ml and PEFABLOC® FG (Centerchem, Norwalk, Conn.) are also added to the sample to prevent fibrin clot formation during the time of the study. Platelet aggregation is monitored using standard instrumentation including optical aggregometer or impedance aggregometer.

[3] = ACS patients; cited from earlier work
PAR1 = PAR1 (Homo sapiens (Human), UniProt P25116); test: FLIPR PAR1 counter screen (SFFLRR-induced calcium mobilization) in HEK293 cells; assay type: cell-based; settings: Example A, routinely tested; read-out: EC50 of agonist peptide in the assay (PAR1 counter screen)
Chain of PAR1 (P25116 22-425): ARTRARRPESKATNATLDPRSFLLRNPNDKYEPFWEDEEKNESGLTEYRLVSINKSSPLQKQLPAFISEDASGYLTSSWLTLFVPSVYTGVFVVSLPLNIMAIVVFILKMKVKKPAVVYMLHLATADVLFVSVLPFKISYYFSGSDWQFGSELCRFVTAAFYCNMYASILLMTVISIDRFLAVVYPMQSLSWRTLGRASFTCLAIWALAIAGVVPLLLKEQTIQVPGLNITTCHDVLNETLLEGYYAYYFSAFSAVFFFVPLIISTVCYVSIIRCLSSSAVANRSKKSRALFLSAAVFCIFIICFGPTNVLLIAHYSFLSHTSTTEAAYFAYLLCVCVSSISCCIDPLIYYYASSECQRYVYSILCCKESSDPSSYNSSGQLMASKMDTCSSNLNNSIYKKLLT

T1 sequence (Q96RI0 18-385): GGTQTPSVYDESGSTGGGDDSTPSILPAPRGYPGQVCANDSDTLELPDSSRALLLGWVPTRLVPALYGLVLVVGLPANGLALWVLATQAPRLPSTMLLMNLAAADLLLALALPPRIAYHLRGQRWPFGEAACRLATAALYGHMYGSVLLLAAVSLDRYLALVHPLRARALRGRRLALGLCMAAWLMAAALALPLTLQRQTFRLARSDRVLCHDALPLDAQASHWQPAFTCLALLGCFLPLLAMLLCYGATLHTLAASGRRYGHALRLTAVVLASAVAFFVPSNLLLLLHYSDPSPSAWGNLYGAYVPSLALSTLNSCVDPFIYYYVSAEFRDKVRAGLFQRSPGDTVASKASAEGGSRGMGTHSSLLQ

Molecule	IC50 (PAR4 [1]) [nM]	IC50 (PAR4 [2]) [nM]	also measured
COc1cc(OCc2cccc(-c3ccc(C#N)nc3)c2)c2cc(-c3cn4nc(OC)sc4n3)oc2c1 [Example 13]	1.74	4.91	IC50 (human washed platelets): 11 nM; inhibition of tissue factor-induced platelet aggregation (human PRP): effective inhibition
COc1cc(OCc2ccnc(-c3ccnc(F)c3)n2)c2cc(-c3cn4nc(OC)sc4n3)oc2c1 [Example 97, 6-(4-((2-(2-Fluoropyridin-4-yl)pyrimidin-4-yl)methoxy)-6-methoxybenzofuran-2-yl)-2-methoxyimidazo[2,1-b][1,3,4]thiadiazole]	0.36	2.97	
COc1cc(OCc2ccnc(-c3ccc(C(=O)N(C)C)cc3)n2)c2cc(-c3cn4nc(OC)sc4n3)oc2c1 [Example 98]	0.29	1.67	
CCOC(=O)N[C@@H]1CC[C@@H]2[C@@H](C1)C[C@H]1C(=O)O[C@H](C)[C@H]1[C@H]2/C=C/c1ccc(-c2cccc(F)c2)cn1 [vorapaxar]			reduction of cardiovascular events [3]: did not significantly reduce; risk of major bleeding [3]: significantly increased
SFFLRR [SFFLRR]			EC50 (PAR1): 600 nM
trans-cinnamoyl-Phe(4-F)-Phe(4-guanidino)-Leu-Arg-Arg-NH2 [reference compound]			inhibition of tissue factor-induced platelet aggregation (human PRP): effective inhibition

Second part, led by results:

IC50 (PAR4 [1]) [nM]	IC50 (PAR4 [2]) [nM]	Molecule	also measured
0.76	1.8	COc1ccc(-c2nccc(COc3cc(OC)cc4oc(-c5cn6nc(OC)sc6n5)cc34)n2)cc1 [Example 100]	
0.41	87.6	COc1cc(OCc2cccc(C3(O)CCOCC3)n2)c2cc(-c3cn4nc([C@H](C)F)sc4n3)oc2c1 [Example 110, (S)-4-(6-(((2-(2-(1-Fluoroethyl)imidazo[2,1-b][1,3,4]thiadiazol-6-yl)-6-methoxybenzofuran-4-yl)oxy)methyl)pyridin-2-yl)tetrahydro-2H-pyran-4-ol]	
